3 compounds from patent US20060106015A1, “Novel use of benzothiazole derivatives” (priority 2002, published 2006) can be followed below.

This assay addresses T1, recombinant human Itk kinase domain fused with GST (Homo sapiens, UniProt Q08881).
T1 construct: recombinant human Itk kinase domain fused with GST; GST (Glutathione S-Transferase); made in house; host or cells: High five insect cells
T1 sequence (Q08881 363-615 limits assumed): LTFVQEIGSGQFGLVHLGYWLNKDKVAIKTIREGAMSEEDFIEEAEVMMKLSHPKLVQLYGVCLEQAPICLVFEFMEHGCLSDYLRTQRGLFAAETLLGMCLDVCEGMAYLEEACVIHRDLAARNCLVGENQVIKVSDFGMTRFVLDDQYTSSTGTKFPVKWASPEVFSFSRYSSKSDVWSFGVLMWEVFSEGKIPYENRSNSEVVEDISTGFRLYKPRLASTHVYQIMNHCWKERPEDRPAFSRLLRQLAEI
As to the kind of experiment: Itk LANCE TRF Assay. The assay is classed as biochemical. Particulars: 50 μM ATP, 2 μM peptide substrate, 50 minutes RT; read-out: Inhibition of Kinase Itk (IC50 μM). The protocol: The Itk kinase assay utilized recombinant human Itk kinase domain fused with GST (Glutathione S-Transferase). The protein was expressed in High five insect cells, purified in one step on an affinity chromatography glutathione column and stored in 50 mM Tris/HCl (pH 7.6), 150 mM NaCl, 5% (w/v) mannitol, 1 mM DTT, 30% glycerol at −70° C. The kinase substrate used in the assay was a biotinylated peptide derived from the Src-optimal substrate (Nair et al, J. Med. Chem., 38: 4276, 1995; biotin-AEEEIYGEFEAKKKK).
The assay additions were as follows: Test compounds (or controls; 1 μL in 100% DMSO) were added to black 96-well flat-bottomed plates (Greiner 655076) followed by 20 μL Itk in assay buffer and the reaction was started by adding 20 μL ATP and peptide substrate in assay buffer. The assay buffer constitution during phosphorylation was: 50 mM HEPES (pH 6.8), 10 mM MgCl2, 0.015% Brij 35, 1 mM DTT, 10% glycerol, 160 ng/well Itk, 2 μM peptide substrate and 50 μM ATP. The assay was stopped after 50 minutes (RT) by adding 150 μL ice-cold Stop solution (50 mM Tris/HCl, pH 7.5, 10 mM EDTA, 0.9% NaCl and 0.1% BSA) together with LANCE reagents (2 nM PT66-Eu^3+, Wallac AD0069 and 5 μg/ml Streptavidin-APC, Wallac AD0059. Both concentrations were final in stopped assay solution). The plates were measured on a Wallac 1420 Victor 2 instrument with TRF settings after 1 h incubation, and the ratio (665 signal/615 signal)*10000 was used to calculate the inhibition values. IC50 values were determined using XLfit.
In general terms: Time-resolved FRET reads energy transfer from a long-lived donor to a nearby acceptor.
As usually defined, the IC50 is the midpoint of a concentration-inhibition curve. Consider `O=C(NCCCN1CCOCC1)c1ccc2nc(-c3ccc(Cl)cc3O)sc2c1` [Example 6, 2-(4-Chloro-2-hydroxyphenyl)-N-(3-morpholin-4-ylpropyl)-1,3-benzothiazole-6-carboxamide], for which the 50% inhibitory concentration (IC50) came to 0.94 µM.
The figure for `Oc1ccc(Cl)cc1-c1nc2ccc(CN3CCCC3)cc2s1` [Example 34, 4-Chloro-2-[6-(pyrrolidin-1-ylmethyl)-1,3-benzothiazol-2-yl]phenol] is 1.47 µM; for `OCc1ccc2nc(-c3ccccc3O)sc2c1` [Example 44, 2-[6-(Hydroxymethyl)-1,3-benzothiazol-2-yl]phenol] it is 3.04 µM.
